Literature values, collected in patent US12396967B2 (Pulmonem Inc., priority 2020, dated 2025).

Test system: human bronchial epithelial cells stimulated with lipopolysaccharide

Nc1ccc(S(=O)(=O)c2ccc(N)cc2)cc1 [Dapsone, 4,4′-diamino-diphenyl sulfone]
IL-8 secretion: inhibits IL-8 secretion
